Data published in PMC13266999, “Designing Antibiotics with Inherent Resistance to Efflux as a Strategy to Revive Discovery against Multidrug-Resistant Pathogens” (Journal of Medicinal Chemistry, 2026).
Values after ≈ are worked out from the molar mass of the structure shown. Where two headings read alike, the source gives them in different places.

Key:
WT DNA gyrase = target: T1, WT DNA gyrase (Staphylococcus aureus, UniProt P0A0K8+P20831); assay: DNA gyrase supercoiling inhibition assay; format: biochemical, S. aureus
T1 construct: purchased Inspiralis Ltd. (Norwich, UK)
Description: (§1) Gyrase inhibition was determined through biochemical assay kits from Inspiralis Ltd. (Norwich, UK), according to manufacturer’s instructions, and as described previously. Briefly, 1U of enzyme was incubated with 0.5 μg of relaxed […] DNA in the presence of compound in 1% DMSO for 30 min at 37 °C. A control reaction contained no compound but still contained 1% DMSO. The reactions were stopped through Stop Buffer addition and the DNA separated through addition of chloroform/iso-amyl alcohol (24;1). Samples were run on a 1% agarose gel at 75 V for 2 h, which was then stained with 1 μg/mL ethidium bromide and visualized using a NuGenius gel imager (Syngene). The intensity of the supercoiled DNA band was quantified using Syngene software, and the inhibition of the supercoiling of the DNA by the compounds was calculated.

[1] = target: T2, GyrA S84L mutant DNA gyrase (Staphylococcus aureus, UniProt P0A0K8+P20831, S84L); assay: DNA gyrase supercoiling inhibition assay; format: biochemical, S. aureus
T2 construct: purchased Inspiralis Ltd. (Norwich, UK)
Description: as §1

K. pneumoniae = assay: MIC (microbroth dilution); format: cell-based, Klebsiella pneumoniae; conditions: Klebsiella pneumoniae, read-out: MIC
Description: (§2) All bacteria were maintained on tryptic soy agar (TSA), except Streptococcus spp., which were maintained on Columbia agar plates containing 5% horse blood. […] Bacteria were grown to stationary phase in liquid culture overnight, with shaking at 200 rpm, before being back diluted to the relevant starting concentration for each assay below. MICs were measured by the microbroth dilution method. […] Absorbance at OD600 was read on a CLARIOstar spectrophotometer (BMG Labtech) and the MIC was defined as the minimum concentration of compound where no visible growth was detected. […] MICs were also performed in the presence of the outer membrane permeator, polymyxin b nonapeptide (PMBN) following the same MIC method but with the following variation. The 2-fold dilution series of compound was prepared as above, then 50 μL of PMBN at a final concentration of 30 μg/mL was added to relevant wells, while 50 μL/well of blank media was added to the remaining wells. Bacteria were then added at 50 μL/well for a starting concentration as above. […] The MICs were read and defined as above. All animal procedures were performed by the contract research organization Pharmacology Discovery Services Taiwan in accordance with the Guide for the Care and Use of Laboratory Animals. The procedures were approved by the Institutional Ethics Committee of Pharmacology Discovery Services Taiwan, Ltd. (approval no. AB127662), in compliance with animal welfare legislation in Taiwan.

E. coli = assay: MIC (microbroth dilution); format: cell-based; conditions: Escherichia coli
Description: as §2

S. aureus = assay: Serial passaging, MIC of adapted strains; format: cell-based; conditions: Staphylococcus aureus
Description: MICs were performed on the first and 10th passage.

Acinetobacter baumannii = assay: MIC (microbroth dilution); format: cell-based
In short: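 Overnight stationary-phase bacteria were back-diluted and tested by broth microdilution, Streptococcus spp. in cation-adjusted Mueller Hinton broth plus 2.5% lysed horse blood, other species in tryptic soy broth. Some wells also received polymyxin B nonapeptide at 30 μg/mL final. Growth checked visually with OD600; MIC = minimum concentration showing no growth.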

C[C@H]1COc2c(N3CC[C@@H](Nc4ncccn4)C3)c(F)cc3c(=O)c(C(=O)O)cn1c23 [Compound 46, (S)-9-Fluoro-3-methyl-7-oxo-10-((R)-3-(pyrimidin-2-ylamino)pyrrolidin-1-yl)-2,3-dihydro-7H-[1,4]oxazino[2,3,4-ij]quinoline-6-carboxylic acid]
IC50 (WT DNA gyrase): 7.92 µM
IC50 [1]: 95.3 µM
MIC (K. pneumoniae; M6): 1 to 2 µg/mL (≈ 2.35 to 4.7 µM)
MIC (K. pneumoniae; NCTC13368, NCTC 13368): 8 µg/mL (≈ 18.8 µM)
MIC (K. pneumoniae; TW3): 1 µg/mL (≈ 2.35 µM)
MIC (E. coli; 319238/UR): 16 µg/mL (≈ 37.6 µM)
MIC (E. coli; LEC006): 0.125 µg/mL (≈ 0.294 µM)
MIC (E. coli; LEC007): 0.125 µg/mL (≈ 0.294 µM)
MIC (E. coli; LEC077): 4 µg/mL (≈ 9.4 µM)
MIC (E. coli; LEC081): 2 µg/mL (≈ 4.7 µM)
MIC (E. coli; NCTC10418, NCTC 10418): ≤ 0.06 µg/mL
MIC (E. coli; NCTC11954, NCTC 11954): 0.125 µg/mL (≈ 0.294 µM)
MIC (E. coli; NCTC12241, NCTC 12241): 0.06 µg/mL (≈ 0.141 µM)
MIC (E. coli; NCTC12923, NCTC 12923): 0.25 to 0.5 µg/mL (≈ 0.588 to 1.18 µM)
MIC (S. aureus; 1199B WT): 0.015 µg/mL
MIC (S. aureus; 1199B adapted to 4 x MIC of Compound 7): 0.03 µg/mL
MIC (S. aureus; 1199B adapted to 4 x MIC of Compound 46): 0.125 µg/mL
MIC (S. aureus; 1199B adapted to 4 x MIC of Compound 50): 0.25 µg/mL
MIC (S. aureus; 1199B adapted to 4 x MIC of Compound 51): 0.06 µg/mL
MIC (S. aureus; 1199 WT): 0.008 µg/mL
MIC (S. aureus; 1199 adapted to 4 x MIC of Compound 7): 0.015 µg/mL
MIC (S. aureus; 1199 adapted to 4 x MIC of Compound 46): 0.03 µg/mL
MIC (S. aureus; 1199 adapted to 4 x MIC of Compound 50): 0.125 µg/mL
MIC (S. aureus; 1199 adapted to 4 x MIC of Compound 51): 0.03 µg/mL
MIC (S. aureus; NCTC13616, NCTC 13616 WT): 0.5 µg/mL
MIC (S. aureus; NCTC13616, NCTC 13616 adapted to 4 x MIC of Compound 7): 0.5 µg/mL
MIC (S. aureus; NCTC13616, NCTC 13616 adapted to 4 x MIC of Compound 46): 0.5 µg/mL
MIC (S. aureus; NCTC13616, NCTC 13616 adapted to 4 x MIC of Compound 50): 0.5 µg/mL
MIC (S. aureus; NCTC13616, NCTC 13616 adapted to 4 x MIC of Compound 51): 2 µg/mL
MIC (Acinetobacter baumannii; Acinetobacter baumannii, 86, oxa23, read-out: MIC): 8 µg/mL (≈ 18.8 µM)
MIC (Acinetobacter baumannii; Acinetobacter baumannii, 96, oxa23, read-out: MIC): 4 µg/mL (≈ 9.4 µM)
MIC (Acinetobacter baumannii; Acinetobacter baumannii, 113, oxa23, read-out: MIC): 4 µg/mL (≈ 9.4 µM)
MIC (Acinetobacter baumannii; Acinetobacter baumannii, A118, read-out: MIC): ≤ 0.06 µg/mL
MIC (Acinetobacter baumannii; Acinetobacter baumannii, A318, read-out: MIC): 8 µg/mL (≈ 18.8 µM)
MIC (Acinetobacter baumannii; Acinetobacter baumannii, A319, read-out: MIC): 8 µg/mL (≈ 18.8 µM)
MIC (Acinetobacter baumannii; Acinetobacter baumannii, A600 colR, read-out: MIC): 4 µg/mL (≈ 9.4 µM)
MIC (Acinetobacter baumannii; Acinetobacter baumannii, A601 colS, read-out: MIC): ≤ 0.06 µg/mL
MIC (Acinetobacter baumannii; Acinetobacter baumannii, AB01335 adeG183::T26): 4 µg/mL (≈ 9.4 µM)
MIC (Acinetobacter baumannii; Acinetobacter baumannii, AB5075-UW, read-out: MIC): 4 µg/mL (≈ 9.4 µM)
MIC (Acinetobacter baumannii; Acinetobacter baumannii, AB05215 adeS132::T26): 4 µg/mL (≈ 9.4 µM)
MIC (Acinetobacter baumannii; Acinetobacter baumannii, AB05218 adeS141::T26): 4 µg/mL (≈ 9.4 µM)
MIC (Acinetobacter baumannii; Acinetobacter baumannii, AB05219 adeR103::T26): 4 µg/mL (≈ 9.4 µM)
MIC (Acinetobacter baumannii; Acinetobacter baumannii, AB05222 adeR160::T101): 4 µg/mL (≈ 9.4 µM)
MIC (Acinetobacter baumannii; Acinetobacter baumannii, AB05226 adeA165::T26): 4 µg/mL (≈ 9.4 µM)
MIC (Acinetobacter baumannii; Acinetobacter baumannii, AB05227 adeA138::T26): 2 µg/mL (≈ 4.7 µM)
MIC (Acinetobacter baumannii; Acinetobacter baumannii, AB05228 adeB150::T26): 1 µg/mL (≈ 2.35 µM)
MIC (Acinetobacter baumannii; Acinetobacter baumannii, AB05230 adeB181::T26): 1 µg/mL (≈ 2.35 µM)
MIC (Acinetobacter baumannii; Acinetobacter baumannii, ATCC17978, ATCC 17978, read-out: MIC): ≤ 0.25 µg/mL
MIC (Acinetobacter baumannii; Acinetobacter baumannii, BAA1709, BAA-1709, read-out: MIC): 0.125 µg/mL (≈ 0.294 µM)
MIC (Acinetobacter baumannii; Acinetobacter baumannii, BAA1710, BAA-1710 (AYE), read-out: MIC): 4 µg/mL (≈ 9.4 µM)
MIC (Acinetobacter baumannii; Acinetobacter baumannii, BAA2093, BAA-2093, read-out: MIC): 0.03 to 0.06 µg/mL (≈ 0.0705 to 0.141 µM)
MIC (Acinetobacter baumannii; Acinetobacter baumannii, NCTC10303, NCTC 10303, read-out: MIC): ≤ 0.06 µg/mL
MIC (Acinetobacter baumannii; Acinetobacter baumannii, NCTC12156, NCTC 12156, read-out: MIC): 0.125 µg/mL (≈ 0.294 µM)
MIC (Acinetobacter baumannii; Acinetobacter baumannii, NCTC13302, NCTC 13302, oxa24, read-out: MIC): 4 µg/mL (≈ 9.4 µM)
MIC (Acinetobacter baumannii; Acinetobacter baumannii, NCTC13424, NCTC 13424, oxa23, read-out: MIC): > 64 µg/mL
MIC (Acinetobacter baumannii; Acinetobacter baumannii, T strain, read-out: MIC): 8 µg/mL (≈ 18.8 µM)
MIC (Acinetobacter baumannii; Acinetobacter baumannii, UKA1, oxa23, read-out: MIC): 4 µg/mL (≈ 9.4 µM)
MIC (Acinetobacter baumannii; Acinetobacter baumannii, UKA2, Low resistance, read-out: MIC): 8 µg/mL (≈ 18.8 µM)
MIC (Acinetobacter baumannii; Acinetobacter baumannii, UKA9, read-out: MIC): ≤ 0.06 µg/mL
MIC (Acinetobacter baumannii; Acinetobacter baumannii, UKA12, oxa23, read-out: MIC): 2 µg/mL (≈ 4.7 µM)
MIC (Acinetobacter baumannii; Acinetobacter baumannii, UKA13, oxa23, read-out: MIC): 2 µg/mL (≈ 4.7 µM)
MIC (Acinetobacter baumannii; Acinetobacter baumannii, UKA15, oxa23, read-out: MIC): 1 µg/mL (≈ 2.35 µM)
MIC (Acinetobacter baumannii; Acinetobacter baumannii, UKA19, read-out: MIC): 0.25 µg/mL (≈ 0.588 µM)
MIC (Acinetobacter baumannii; Acinetobacter baumannii, W1, read-out: MIC): 4 µg/mL (≈ 9.4 µM)
